US20170313674A1, “BENZYLHYDROXIDE DERIVATIVES, PREPARATION THEREOF AND THERAPEUTIC USE THEREOF” (SANOFI, priority 2014, published 2017)
Where two headings read alike, the source gives them in different places.

What was measured:
[1] = tested on: mitochondrial ATP production on non-small cell lung carcinoma cell lines NCI-H460; experiment: Mitochondrial ATP analysis (Cell Titer Glo) in NCI-H460 cells; type: cell-based; conditions: 1-hour incubation, with sodium iodoacetate (100 μM), concentration inhibiting 50% of mitochondrial ATP production, read-out: IC50 (mito ATP)
Method in brief: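 NCI-H460 cells (1,000/well) treated 24 h after plating for 1 h with compound dose series alone or with 100 μM sodium iodoacetate; oligomycin A (10 μg/ml) and FCCP (30 μM) as controls; Cell Titer Glo luminescence. Mitochondrial ATP = ATP under iodoacetate minus ATP under iodoacetate+oligomycin; IC50 (M).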

HIF-1a = experiment: Western blot model: HIF1-a stabilization in Hep3b cells under hypoxia; type: cell-based; conditions: hypoxia 1% O2, 6 hours; for Western Blot (range of decrease of HIF1-a stabilization): class symbol
Method: Since it was sought to determine the efficacy of the compounds to inhibit HIF1a stabilization under hypoxia, the compounds according to the invention underwent biochemical studies in order to determine their capacity to decrease HIF stabilization in Hep3b cells under hypoxia (western blot model).
Hep3B cells are seeded at a rate of 300000 cells per well in 6-wells culture plate in 2 ml of MEM supplemented with glutamin (2 mM) and 10% FCS (foetal calf serum) and incubated at 37° C. in the presence of 5% CO2. The next day, the cells are placed in contact with the compound and an incubation under hypoxia at 1% O2 is carried out at 37° C. in 95% humidity and 5% CO2 in a sealed anaerobic workstation (Hypoxystation H35-Don Whitley—AES Chemunex) during 6 hours.
Cells were washed (PBS) and lysed in SDS sample buffer. Proteins (25 μg) were separated on 4-12% Bis-Tris gels and transferred onto polyvinylidene difluoride membranes (Millipore). Membranes were blotted with a mouse monoclonal antibody to HIF-1a (BD transduction) and a mouse monoclonal anti-βactin (Sigma). Immunoreactive bands were detected with a horse radish peroxydase (HRP) anti-mouse antibody (Sigma) by enhanced chemiluminescence (Promega).
The inhibitory activity of the compounds for their capacity to decrease HIF1-a stabilization in Hep3b under hypoxia is expressed as range of percentage relative to control with: […]

Compound | IC50 ([1]; Homo sapiens, NCI-H460, 1 h) | IC50 [1] | Western Blot (decrease of HIF1-a stabilization, percentage relative to control) (HIF-1a) | Western Blot (range of decrease of HIF1-a stabilization) (HIF-1a)
COc1ccc(C(O)COc2ccc(-c3noc(-c4ccc(OCC(O)c5ccc(OC)c(OC)c5)cc4)n3)cc2)cc1OC (single isomer, unassigned) [Compound I-47, 1-(3,4-dimethoxyphenyl)-2-[4-[5-[4-[2-(3,4-dimethoxyphenyl)-2-hydroxy-ethoxy]phenyl]-1,2,4-oxadiazol-3-yl]phenoxy]ethanol] | > 10000 nM | – | 51% | ** (** represents a decrease of HIF-a stabilization between 50 to 70%)
COc1ccc(C(O)COc2ccc(-c3noc(-c4ccc(OCC(O)c5ccc(OC)c(OC)c5)cc4)n3)cc2)cc1OC (single isomer, unassigned) [Compound I-48, 1-(3,4-dimethoxyphenyl)-2-[4-[5-[4-[2-(3,4-dimethoxyphenyl)-2-hydroxy-ethoxy]phenyl]-1,2,4-oxadiazol-3-yl]phenoxy]ethanol] | – | > 10000 nM | 87% | *** (*** represents a decrease of HIF-a stabilization higher than 70%)
COc1ccc(C(O)COc2ccc(-c3csc(-c4ccc(OCC(O)c5ccc(OC)c(OC)c5)cc4)n3)cc2)cc1OC (single isomer, unassigned) [Compound I-61, 1-(3,4-dimethoxyphenyl)-2-[4-[2-[4-[2-(3,4-dimethoxyphenyl)-2-hydroxy-ethoxy]phenyl]thiazol-4-yl]phenoxy]ethanol] | – | 326 nM | 46% | * (* represents a decrease of HIF-a stabilization between 30 to 50%)
COc1ccc(C(O)COc2ccc(-c3csc(-c4ccc(OCC(O)c5ccc(OC)c(OC)c5)cc4)n3)cc2)cc1OC (single isomer, unassigned) [Compound I-62, 1-(3,4-dimethoxyphenyl)-2-[4-[2-[4-[2-(3,4-dimethoxyphenyl)-2-hydroxy-ethoxy]phenyl]thiazol-4-yl]phenoxy]ethanol] | – | 492 nM | 43% | * (* represents a decrease of HIF-a stabilization between 30 to 50%)
COc1ccc(C(O)COc2ccc(-c3nc(-c4ccc(OCC(O)c5ccc(OC)c(OC)c5)cc4)c(C)o3)cc2)cc1OC (stereo not drawn) [Compound I-1, 1-(3,4-dimethoxyphenyl)-2-[4-[2-[4-[2-(3,4-dimethoxyphenyl)-2-hydroxy-ethoxy]phenyl]-5-methyl-oxazol-4-yl]phenoxy]ethanol] | 353 nM | – | 48% | * (* represents a decrease of HIF-a stabilization between 30 to 50%)
COc1ccc(C(O)COc2ccc(-c3nc(-c4ccc(OCC(O)c5ccc(OC)c(OC)c5)cc4)c(C)s3)cc2)cc1OC (stereo not drawn) [Compound I-7, 1-(3,4-dimethoxyphenyl)-2-[4-[2-[4-[2-(3,4-dimethoxyphenyl)-2-hydroxy-ethoxy]phenyl]-5-methyl-thiazol-4-yl]phenoxy]ethanol] | 284 nM | – | 63% | ** (** represents a decrease of HIF-a stabilization between 50 to 70%)
COc1ccc(C(O)C(C)Oc2ccc(-c3coc(-c4ccc(OC(C)C(O)c5ccc(OC)c(OC)c5)cc4)n3)cc2)cc1OC (stereo not drawn) [Compound I-12, 1-(3,4-dimethoxyphenyl)-2-[4-[2-[4-[2-(3,4-dimethoxyphenyl)-2-hydroxy-1-methyl-ethoxy]phenyl]oxazol-4-yl]phenoxy]propan-1-ol] | 128 nM | – | 38% | * (* represents a decrease of HIF-a stabilization between 30 to 50%)

The next lines start with results.

IC50 ([1]; Homo sapiens, NCI-H460, 1 h) | IC50 [1] | Compound | Western Blot (decrease of HIF1-a stabilization, percentage relative to control) (HIF-1a) | Western Blot (range of decrease of HIF1-a stabilization) (HIF-1a)
37 nM | – | COc1ccc(C(O)C(C)(C)Oc2ccc(-c3nsc(-c4ccc(OC(C)(C)C(O)c5ccc(OC)c(OC)c5)cc4)n3)cc2)cc1OC (single isomer, unassigned) [Compound I-43, 1-(3,4-dimethoxyphenyl)-2-[4-[5-[4-[2-(3,4-dimethoxyphenyl)-2-hydroxy-1,1-dimethyl-ethoxy]phenyl]-1,2,4-thiadiazol-3-yl]phenoxy]-2-methyl-propan-1-ol] | 32% | * (* represents a decrease of HIF-a stabilization between 30 to 50%)
– | 54.4 nM | COc1ccc(C(O)C(C)(C)Oc2ccc(-c3nsc(-c4ccc(OC(C)(C)C(O)c5ccc(OC)c(OC)c5)cc4)n3)cc2)cc1OC (single isomer, unassigned) [Compound I-44, 1-(3,4-dimethoxyphenyl)-2-[4-[5-[4-[2-(3,4-dimethoxyphenyl)-2-hydroxy-1,1-dimethyl-ethoxy]phenyl]-1,2,4-thiadiazol-3-yl]phenoxy]-2-methyl-propan-1-ol] | 45% | * (* represents a decrease of HIF-a stabilization between 30 to 50%)
435 nM | – | COc1ccc(C(O)C(C)(C)Oc2ccc(-c3c[nH]c(-c4ccc(OC(C)(C)C(O)c5ccc(OC)c(OC)c5)cc4)n3)cc2)cc1OC (single isomer, unassigned) [Compound I-55, 1-(3,4-dimethoxyphenyl)-2-[4-[2-[4-[2-(3,4-dimethoxyphenyl)-2-hydroxy-1,1-dimethyl-ethoxy]phenyl]-1H-imidazol-4-yl]phenoxy]-2-methyl-propan-1-ol] | 62% | ** (** represents a decrease of HIF-a stabilization between 50 to 70%)
– | 760 nM | COc1ccc(C(O)C(C)(C)Oc2ccc(-c3c[nH]c(-c4ccc(OC(C)(C)C(O)c5ccc(OC)c(OC)c5)cc4)n3)cc2)cc1OC (single isomer, unassigned) [Compound I-56, 1-(3,4-dimethoxyphenyl)-2-[4-[2-[4-[2-(3,4-dimethoxyphenyl)-2-hydroxy-1,1-dimethyl-ethoxy]phenyl]-1H-imidazol-4-yl]phenoxy]-2-methyl-propan-1-ol] | 75% | *** (*** represents a decrease of HIF-a stabilization higher than 70%)
23.8 nM | – | COc1ccc(C(O)COc2ccc(-c3csc(-c4ccc(OC(C)(C)C(O)c5ccc(OC)c(OC)c5)cc4)n3)cc2)cc1OC (single isomer, unassigned) [Compound I-65, 1-(3,4-dimethoxyphenyl)-2-[4-[4-[4-[2-(3,4-dimethoxyphenyl)-2-hydroxy-ethoxy]phenyl]thiazol-2-yl]phenoxy]-2-methyl-propan-1-ol] | 41% | * (* represents a decrease of HIF-a stabilization between 30 to 50%)
– | 26.5 nM | COc1ccc(C(O)COc2ccc(-c3csc(-c4ccc(OC(C)(C)C(O)c5ccc(OC)c(OC)c5)cc4)n3)cc2)cc1OC (single isomer, unassigned) [Compound I-66, 1-(3,4-dimethoxyphenyl)-2-[4-[4-[4-[2-(3,4-dimethoxyphenyl)-2-hydroxy-ethoxy]phenyl]thiazol-2-yl]phenoxy]-2-methyl-propan-1-ol] | 54% | ** (** represents a decrease of HIF-a stabilization between 50 to 70%)
23 nM | – | COc1ccc(C(O)C(C)(C)Oc2ccc(-c3nc(-c4ccc(OC(C)(C)C(O)c5ccc(OC)c(OC)c5)cc4)c(C)o3)cc2)cc1OC (stereo not drawn) [Compound I-2, 1-(3,4-dimethoxyphenyl)-2-[4-[2-[4-[2-(3,4-dimethoxyphenyl)-2-hydroxy-1,1-dimethyl-ethoxy]phenyl]-5-methyl-oxazol-4-yl]phenoxy]-2-methyl-propan-1-ol] | 54% | ** (** represents a decrease of HIF-a stabilization between 50 to 70%)
21.3 nM | – | COc1ccc(C(O)C(C)(C)Oc2ccc(-c3nc(-c4ccc(OC(C)(C)C(O)c5ccc(OC)c(OC)c5)cc4)c(C)s3)cc2)cc1OC (stereo not drawn) [Compound I-6, 1-(3,4-dimethoxyphenyl)-2-[4-[2-[4-[2-(3,4-dimethoxyphenyl)-2-hydroxy-1,1-dimethyl-ethoxy]phenyl]-5-methyl-thiazol-4-yl]phenoxy]-2-methyl-propan-1-ol] | 43% | * (* represents a decrease of HIF-a stabilization between 30 to 50%)
